From patent US5371077A, “Side chain derivatized 15-oxygenated sterols, methods of using them and a process for preparing them” (William Marsh Rice University, priority 1992, dated 1994)

Legend:
HMG-CoA reductase = assay: Effects of sterols on HMG-CoA reductase activity in CHO-K1 cells; type: cell-based; conditions: 4 hours
Experimental: Effects of side chain derivatized 15-oxygenated sterols on HMG-CoA reductase activity in CHO-K1 cells
The effects of the sterols on HMG-CoA reductase activity were determined on CHO-K1 cells. The cells were obtained from the American Type Culture Collection (Rockville, Md.). (3RS)-[3-^14 C]HMG-CoA (56 mCi per mmol) and (3RS)-[2-^3 H]mevalonolactone (176 mCi per mmol) were purchased from Amersham Corporation (Arlington Heights, Ill.). Lux tissue culture plasticware was from Miles Scientific (Elkhart, Ind.). Trypsin was obtained from Gibco Laboratories (Grand Island, N.Y.) and Ham's F12 medium, Proc. Natl. Acad. Sci. U.S.A., 53, 288-293 (1965), and phosphate buffered saline (PBS; KCl, 2.7 mM; KH2 PO4, 1.2 mM; NaCl, 137 mM; and Na2 HPO4, 8.1 mM) were obtained from Irvine Scientific (Irvine, Calif.). Fetal calf serum was purchased from Whittaker M.A. Bioproducts (Elkhart, Ind.).
For cell culture experiments, the sterols and C24 acid were added as ethanolic solutions to Ham's F12 medium supplemented with 5% delipidated fetal calf serum (lipid-deficient medium) and allowed to equilibrate for at least 6 hours at room temperature prior to storage at 4° C. Protein in detergent-solubilized extracts of cultured cells was assayed by the Peterson modification, Anal. Biochem., 83, 346-356, of the method of Lowry et al., J. Biol. Chem, 193, 265-275.
The CHO-K1 cells were maintained in Ham's F12 medium supplemented with 5% fetal calf serum (lipid-rich medium) in a humidified atmosphere of 5% CO2 -95% air at 37° C. Each experiment was initiated by inoculating […] cells into 100-mm dishes containing the lipid-rich medium (10 ml), followed by incubating for 48 hours. The medium was aspirated and, after rinsing the plates with PBS (10 ml), the cells were incubated for 18 hours in lipid-deficient media (10 ml). The cells were then incubated with fresh lipid-deficient media (10 ml) containing various concentrations of the 15-oxygenated sterols (from 0.0 μM to 2.5 μM) for 4 hours. Cells were harvested by scraping, and detergent-solubilized cell preparations were obtained for assay of HMG-CoA reductase activity using the method of Brown, Dana and Goldstein, J. Biol. Chem, 249, 789-796. Replicate assays (n=3) were carried out as described by Pinkerton et al., J. Biol. Chem, 257, 1929-1936, except that the specific activity of (3RS)-[3-^14 C]HMG-CoA was 20,000 dpm per nmol.

[1] = Effects of dietary administration of F7-15-ketosterol to rats: serum sterols; type: in vivo, rats (Sprague-Dawley, male); conditions: rat
From the text: Effects of dietary administration of side chain derivatized 15-oxygenated sterols to rats
Male rats (100-140 g) of the Sprague-Dawley strain were obtained from Harlan Sprague-Dawley (Houston, Tex.) and housed in pairs for 6 days on a light (6:00 AM-6:00 PM)--dark cycle and fed a ground basal diet (Purina Formulab 5008) and water ad libitum. The animals were then divided into groups of 8 animals each, such that the mean values of serum cholesterol and body weight were approximately the same. The animals were then housed individually and were provided diet and water ad libitum. Blood for serum sterol concentrations was obtained at ^~ 8:00 AM from tail vein on days 5 and 9.
The experiment involved administration of 3β-hydroxy-25,26,26,26,27,27,27-heptafluoro-5α-cholest-8(14)-en-15-one (F7 -15-ketosterol) in basal diet as utilized previously in Schroepfer et al., Blochem. Biophys. Res. Commun., 78, 1227-233 (1977). 3β-Hydroxy-25,26,26,26,27,27,27-heptafluoro-5α-cholest-8(14)-en-15-one was administered at levels of 0.025%, 0.05%, 0.075, and 0.10% (by weight) in basal diet. Control rats received basal diet containing no added sterol.
Serum cholesterol was measured by two methods. Day 0 levels were determined using a commercial assay kit ("Single Vial"; Boehringer Mannheim Diagnostics, catalog no. 236691). This methodology could not be applied to the determination of serum cholesterol in serum samples of rats treated with 3β-hydroxy-25,26,26,26,27,27,27-heptafluoro-5α-cholest-8(14)-en-15-one due to the presence of another sterol which also acted as a substrate for cholesterol oxidase. Accordingly, cholesterol levels in serum were determined by gas chromatography (GC). Routine capillary GC analyses of sterols in serum were made on a 0.1 μm Rtx 1701 column (15 m×0.25 mm ID; 14% cyanopropylphenyl, 86% methyl polysiloxane; Restek Corp., Bellefonte, Pa.). Stigmasterol was used as an internal standard. In addition, recovery of sterol after saponification and extraction was monitored through the use of an internal standard of [7(n)-^3 H]cholesteryl oleate. Routine saponification of sample (100 μl) involved treatment with 10% KOH in ethanol (500 μl) followed by extraction with hexane (3×1.5 ml). After evaporation to dryness under nitrogen, the samples were treated with BSTFA-pyridine (1:1, 200 μl) for 1 hour at room temperature under nitrogen. After evaporation to dryness under nitrogen, the silylated material was dissolved in hexane (500 μl) and aliquots (1 μl) were subjected to GC analysis.

Row | SMILES | HMG-CoA reductase activity (% of control activity) (HMG-CoA reductase; sterol concentration 0.1 μM) | HMG-CoA reductase activity (% of control activity) (HMG-CoA reductase; sterol concentration 0.25 μM) | HMG-CoA reductase activity (% of control activity) (HMG-CoA reductase; sterol concentration 0.5 μM) | HMG-CoA reductase activity (% of control activity) (HMG-CoA reductase; sterol concentration 1.0 μM) | HMG-CoA reductase activity (% of control activity) (HMG-CoA reductase; sterol concentration 2.5 μM) | Serum Sterols: Cholesterol ([1]; 0.025% in diet, day 5, control 2.60 ± 0.12) | Serum Sterols: Cholesterol ([1]; 0.025% in diet, day 9, control 2.62 ± 0.06) | Serum Sterols: Cholesterol ([1]; 0.050% in diet, day 5, control 2.60 ± 0.12) | Serum Sterols: Cholesterol ([1]; 0.050% in diet, day 9, control 2.62 ± 0.06) | Serum Sterols: Cholesterol ([1]; 0.075% in diet, day 5, control 2.60 ± 0.12) | Serum Sterols: Cholesterol ([1]; 0.075% in diet, day 9, control 2.62 ± 0.06) | Serum Sterols: Cholesterol ([1]; 0.100% in diet, day 5, control 2.60 ± 0.12) | Serum Sterols: Cholesterol ([1]; 0.100% in diet, day 9, control 2.62 ± 0.06)
1 | C[C@H](CCC(=O)O)[C@H]1CC(=O)C2=C3CC[C@H]4C[C@@H](O)CC[C@]4(C)[C@H]3CC[C@@]21C [I, 3β-hydroxy-15-keto-5α-chol-8(14)-en-24-oic acid] | 88.5 % of control activity | 77.3 % of control activity | 69.9 % of control activity | 65.0 % of control activity | 45.6 % of control activity |  |  |  |  |  |  |  | 
2 | CC(C)=CCC[C@@H](C)[C@H]1CC(=O)C2=C3CC[C@H]4C[C@@H](O)CC[C@]4(C)[C@H]3CC[C@@]21C [II, 3β-hydroxy-5α-cholesta-8(14),24-dien-15-one] | 60.5 % of control activity | 67.0 % of control activity | 51.1 % of control activity | 40.0 % of control activity | 35.2 % of control activity |  |  |  |  |  |  |  | 
3 | C[C@H](CCCC(C)(C)O)[C@H]1CC(=O)C2=C3CC[C@H]4C[C@@H](O)CC[C@]4(C)[C@H]3CC[C@@]21C [III, 3β,25-dihydroxy-5α-cholest-8(14)-en-15-one] | 66.4 % of control activity | 56.2 % of control activity | 50.2 % of control activity | 34.8 % of control activity | 23.7 % of control activity |  |  |  |  |  |  |  | 
4 | CC(C)C(O)CC[C@@H](C)[C@H]1CC(=O)C2=C3CC[C@H]4C[C@@H](O)CC[C@]4(C)[C@H]3CC[C@@]21C (stereo partly drawn) [IV, 3β,24-dihydroxy-5α-cholest-8(14)-en-15-one] | 63.4 % of control activity | 33.5 % of control activity | 32.2 % of control activity | 34.2 % of control activity | 21.5 % of control activity |  |  |  |  |  |  |  | 
5 | C[C@H](CCCN(C)C)[C@H]1CC(=O)C2=C3CC[C@H]4C[C@@H](O)CC[C@]4(C)[C@H]3CC[C@@]21C [V, 3β-hydroxy-24-dimethylamino-5α-chol-8(14)-en-15-one] | 87.1 % of control activity | 85.4 % of control activity | 73.3 % of control activity | 53.5 % of control activity | 35.0 % of control activity |  |  |  |  |  |  |  | 
6 | C[C@H](CCCC(F)(C(F)(F)F)C(F)(F)F)[C@H]1CC(=O)C2=C3CC[C@H]4C[C@@H](O)CC[C@]4(C)[C@H]3CC[C@@]21C [VI, 3β-hydroxy-25,26,26,26,27,27,27-heptafluoro-5α-cholest-8(14)-en-15-one] | 68.3 % of control activity | 49.1 % of control activity | 35.6 % of control activity | 29.0 % of control activity | 22.2 % of control activity | 2.02 ± 0.12 mM | 2.10 ± 0.10 mM | 2.06 ± 0.07 mM | 1.83 ± 0.07 mM | 1.76 ± 0.05 mM | 1.76 ± 0.12 mM | 1.97 ± 0.09 mM | 1.90 ± 0.10 mM
